Measurements taken from patent US4450269A, “Mono-5-substituted-3-chloro-4H-1,2,6-thiadiazin-4-one antifungal agents” (FMC Corporation, priority 1980, dated 1984).

Experiments:
Uromyces phaseoli = assay: whole plant or invertebrate; details: foliar, read-out: Percent Disease Control, foliar, bean rust
Fusarium solani = assay: Mycelial growth test; assay type: cell-based; details: Fusarium solani, 72 h; for inhibition at 5 ppm / inhibition at 10 ppm / inhibition at 20 ppm: PS, 72 hours, read-out: Percent Fungus Growth Inhibition; for inhibition at 40 ppm: read-out: Percent Fungus Growth Inhibition, PS, 40 ppm, 72 hours
Venturia inaequalis = assay: Spore germination test; assay type: cell-based; details: VI, 48 hours
Protocol: VI = Venturia inaequalis
The test chemical was dissolved or suspended in acetone in an amount such that 0.8 ml of the resulting suspension or solution, mixed with 40 ml water agar produced a water agar solution containing 40, 10, 2.5 and 1 ppm of test chemical. The resulting agar solution, at 50° C., was then divided equally between two sterile petri dishes, each having four separated quadrants, and allowed to solidify. […] quadrants of each dish were flooded with 0.1 ml of a spore suspension in sterile water. Spores of two pathogens, Erysiphe polygoni and Uromyes phaseoli, from infected plant leaves, were brushed on the remaining two quadrants. The tests were then incubated 48 hours, at 24° C.
Readings were then taken and the percentage of germinated spores calculated. From this percentage, a spore germination rating was assigned as follows: […]

SMILES	pest or weed control at 150 ppm (Uromyces phaseoli) [%]	inhibition at 5 ppm (Fusarium solani) [%]	inhibition at 10 ppm (Fusarium solani) [%]	inhibition at 20 ppm (Fusarium solani) [%]	inhibition at 40 ppm (Fusarium solani) [%]	Spore Germination Rating (Venturia inaequalis; 1.0 ppm)	Spore Germination Rating (Venturia inaequalis; 2.5 ppm)	Spore Germination Rating (Venturia inaequalis; 10 ppm)	Spore Germination Rating (Venturia inaequalis; 40 ppm)
O=c1c(Cl)nsnc1Oc1ccccc1Cl [Compound 14, 3-chloro-5-(2-chlorophenoxy)-4H--1,2,6-thiadiazin-4-one]	0	44	100	100	100	0 (0-10)	0 (0-10)	0 (0-10)	0 (0-10)
CC(=O)Nc1ccccc1Oc1nsnc(Cl)c1=O [Compound 43, 3-[(2-acetylamino)-phenoxy]-5-chloro-4H--1,2,6-thiadiazin-4-one]	0	0	0	0	0	4 (80-100)	4 (80-100)	4 (80-100)	2 (40-60)
O=c1c(Cl)nsnc1Oc1c(Cl)cccc1Cl [Compound 18, 3-chloro-5-(2,6-dichlorophenoxy)-4H--1,2,6-thiadiazin-4-one]	100	41	50	75	75	1 (10-40)	0 (0-10)	0 (0-10)	0 (0-10)
O=C(O)Cc1ccccc1Oc1nsnc(Cl)c1=O [Compound 45, 3-(2-carboxymethylphenoxy)-5-chloro-4H--1,2,6-thiadiazin-4-one]	95	0	0	6	31	4 (80-100)	4 (80-100)	4 (80-100)	0 (0-10)
O=c1c(Cl)nsnc1Oc1cccc(Cl)c1 [Compound 13, 3-chloro-5-(3-chlorophenoxy)-4H--1,2,6-thiadiazin-4-one]	100	38	50	72	100	1 (10-40)	0 (0-10)	0 (0-10)	0 (0-10)
O=C(O)c1ccc(Oc2nsnc(Cl)c2=O)cc1 [Compound 50, 3-(4-carboxyphenoxy)-5-chloro-4H--1,2,6-thiadiazin-4-one]	90	25	38	63	100	4 (80-100)	4 (80-100)	4 (80-100)	0 (0-10)
CC(=O)Nc1ccc(Oc2nsnc(Cl)c2=O)cc1 [Compound 8, 5-(4-acetylaminophenoxy)-3-chloro-4H--1,2,6-thiadiazin-4-one]	100	3	41	31	31	4 (80-100)	3 (60-80)	2 (40-60)	0 (0-10)
Cc1cc(Cl)c(Oc2nsnc(Cl)c2=O)cc1C [Compound 58, 3-chloro-5-[(2-chloro-4,5-dimethyl)phenoxy]-4H--1,2,6-thiadiazin-4-one]	100	56	56	56	44	2 (40-60)	1 (10-40)	0 (0-10)	0 (0-10)
O=c1c(Cl)nsnc1Oc1ccc(Cl)cc1 [Compound 12, 3-chloro-5-(4-chlorophenoxy)-4H--1,2,6-thiadiazin-4-one]	100	71	59	65	100	1 (10-40)	0 (0-10)	0 (0-10)	0 (0-10)
CNC(=O)Nc1ccc(Oc2nsnc(Cl)c2=O)cc1 [Compound 28, 3-chloro-5-[4-(3-methylureido)-phenoxy]-4H--1,2,6-thiadiazin-4-one]	0	0	17	17	13	4 (80-100)	4 (80-100)	2 (40-60)	3 (60-80)
CC(=O)c1cccc(Oc2nsnc(Cl)c2=O)c1 [Compound 48, 3-(3-acetylphenoxy)-5-chloro-4H--1,2,6-thiadiazin-4-one]	100	38	50	100	100	3 (60-80)	1 (10-40)	0 (0-10)	0 (0-10)
O=c1c(Cl)nsnc1Oc1ccccc1 [Compound 2, 3-chloro-5-phenoxy-4H--1,2,6-thiadiazin-4-one]	100	53	65	76	100	4 (80-100)	2 (40-60)	0 (0-10)	0 (0-10)
Cc1ccccc1Oc1nsnc(Cl)c1=O [Compound 22, 3-chloro-5-(2-methylphenoxy)-4H--1,2,6-thiadiazin-4-one]	100	17	67	83	100	0 (0-10)	0 (0-10)	0 (0-10)	0 (0-10)
CCOC(=O)c1ccc(Oc2nsnc(Cl)c2=O)cc1 [Compound 7, 3-chloro-5-(4-ethoxycarbonylphenoxy)-4H--1,2,6-thiadiazin-4-one]	100	42	54	69	88	0 (0-10)	0 (0-10)	0 (0-10)	0 (0-10)
O=C(Nc1ccccc1)Nc1ccc(Oc2nsnc(Cl)c2=O)cc1 [Compound 29, 3-chloro-5-[4-(3-phenylureido)-phenoxy]-4H--1,2,6-thiadiazin-4-one]	0	0	0	0	13	4 (80-100)	4 (80-100)	4 (80-100)	0 (0-10)
O=c1c(Cl)nsnc1Oc1ccc(F)cc1 [Compound 11, 3-chloro-5-(4-fluorophenoxy)-4H--1,2,6-thiadiazin-4-one]	0	17	33	83	75	4 (80-100)	1 (10-40)	0 (0-10)	0 (0-10)
CCCCOc1ccc(Oc2nsnc(Cl)c2=O)cc1 [Compound 6, 3-chloro-5-(4-n-butoxyphenoxy)-4H--1,2,6-thiadiazin-4-one]	0	0	0	0	13	1 (10-40)	0 (0-10)	0 (0-10)	0 (0-10)
Cc1ccc(Oc2nsnc(Cl)c2=O)c(Br)c1 [Compound 57, 3-[(2-bromo-4-methyl)-phenoxy]-5-chloro-4H--1,2,6-thiadiazin-4-one]	100	88	100	100	100	2 (40-60)	0 (0-10)	0 (0-10)	0 (0-10)
Cc1cc(Cl)ccc1Oc1nsnc(Cl)c1=O [Compound 55, 3-chloro-5-(4-chloro-2-methylphenoxy)-4H--1,2,6-thiadiazin-4-one]	100	0	13	17	20	1 (10-40)	0 (0-10)	0 (0-10)	0 (0-10)
CC(=O)c1ccc(Oc2nsnc(Cl)c2=O)cc1 [Compound 47, 3-(4-acetylphenoxy)-5-chloro-4H--1,2,6-thiadiazin-4-one]	0	38	50	100	100	1 (10-40)	0 (0-10)	0 (0-10)	0 (0-10)
Cc1cccc(Oc2nsnc(Cl)c2=O)c1 [Compound 21, 3-chloro-5-(3-methylphenoxy)-4H--1,2,6-thiadiazin-4-one]	100	33	62	58	100	4 (80-100)	3 (60-80)	0 (0-10)	0 (0-10)
Cc1cc(Oc2nsnc(Cl)c2=O)ccc1Cl [Compound 54, 3-chloro-5-(4-chloro-3-methylphenoxy)-4H--1,2,6-thiadiazin-4-one]	100	27	30	20	20	1 (10-40)	0 (0-10)	0 (0-10)	0 (0-10)
Cc1cccc(C)c1Oc1nsnc(Cl)c1=O [Compound 24, 3-chloro-5-(2,6-dimethylphenoxy)-4H--1,2,6-thiadiazin-4-one]	100	33	83	100	100	2 (40-60)	0 (0-10)	0 (0-10)	0 (0-10)
